Measured values reported in US10676431B2, “Phenylpyrrolidinone formyl peptide 2 receptor agonists” (BRISTOL-MYERS SQUIBB COMPANY, priority 2018, dated 2020).

Key:
human FPR2 = human FPR2 (Homo sapiens (Human), UniProt P25090); assay: FPR2 cyclic adenosine monophosphate (cAMP) assay; assay type: cell-based; details: CHO cells overexpressing human FPR2; forskolin 5 μM, IBMX 200 μM; inhibition of cAMP production, HTRF; read-out: hFPR2 cAMP2 EC50
Experimental: (§1) FPR2 and FPR1 Cyclic Adenosine Monophosphate (cAMP) Assays. A mixture of forskolin (5 μM final for FPR2 or 10 μM final for FPR1) and IBMX (200 μM final) were added to 384-well Proxiplates (Perkin-Elmer) pre-dotted with test compounds in DMSO (1% final) at final concentrations in the range of 0.020 nM to 100 μM. Chinese Hamster Ovary cells (CHO) overexpressing human FPR1 or human FPR2 receptors were cultured in F-12 (Ham's) medium supplemented with 10% qualified FBS, 250 μg/ml zeocin and 300 μg/ml hygromycin (Life Technologies). Reactions were initiated by adding 2,000 human FPR2 cells per well or 4,000 human FPR1 cells per well in Dulbecco's PBS (with calcium and magnesium) (Life Technologies) supplemented with 0.1% BSA (Perkin-Elmer). The reaction mixtures were incubated for 30 min at room temperature. The level of intracellular cAMP was determined using the HTRF HiRange cAMP assay reagent kit (Cisbio) according to manufacturer's instruction. Solutions of cryptate conjugated anti-cAMP and d2 fluorophore-labelled cAMP were made in a supplied lysis buffer separately. Upon completion of the reaction, the cells were lysed with equal volume of the d2-cAMP solution and anti-cAMP solution. After a 1-h room temperature incubation, time-resolved fluorescence intensity was measured using the Envision (Perkin-Elmer) at 400 nm excitation and dual emission at 590 nm and 665 nm. A calibration curve was constructed with an external cAMP standard at concentrations ranging from 1 μM to 0.1 pM by plotting the fluorescent intensity ratio from 665 nm emission to the intensity from the 590 nm emission against cAMP concentrations. The potency and activity of a compound to inhibit cAMP production was then determined by fitting to a 4-parametric logistic equation from a plot of cAMP level versus compound concentrations.

human FPR1 = human FPR1 (Homo sapiens (Human), UniProt P21462); assay: FPR1 cyclic adenosine monophosphate (cAMP) assay; assay type: cell-based; details: CHO cells overexpressing human FPR1; forskolin 10 μM, IBMX 200 μM; inhibition of cAMP production, HTRF; read-out: hFPR1 cAMP EC50
Experimental: as §1, with “After a 1-h room temperature incubation, time-resolved fluorescence intensity was measured using the Envision (Perkin-Elmer) at 400 nm excitation and dual emission at 590 nm and 665 nm. A calibration curve was constructed with an external cAMP standard at concentrations ranging from 1 μM to 0.1 pM by plotting the fluorescent intensity ratio from 665 nm emission to the intensity from the 590 nm emission against cAMP concentrations.” left out

human FPR2, sequence (P25090 whole entry): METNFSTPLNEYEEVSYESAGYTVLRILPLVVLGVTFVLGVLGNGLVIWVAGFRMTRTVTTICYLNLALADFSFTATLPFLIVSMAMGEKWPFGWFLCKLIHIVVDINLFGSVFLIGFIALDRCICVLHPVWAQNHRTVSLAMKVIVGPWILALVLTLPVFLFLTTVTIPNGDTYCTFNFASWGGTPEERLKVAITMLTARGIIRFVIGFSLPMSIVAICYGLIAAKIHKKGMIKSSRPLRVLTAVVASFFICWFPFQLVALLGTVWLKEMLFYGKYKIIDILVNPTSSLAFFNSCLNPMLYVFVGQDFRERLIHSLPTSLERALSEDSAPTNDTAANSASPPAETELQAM
human FPR1, sequence (P21462 whole entry): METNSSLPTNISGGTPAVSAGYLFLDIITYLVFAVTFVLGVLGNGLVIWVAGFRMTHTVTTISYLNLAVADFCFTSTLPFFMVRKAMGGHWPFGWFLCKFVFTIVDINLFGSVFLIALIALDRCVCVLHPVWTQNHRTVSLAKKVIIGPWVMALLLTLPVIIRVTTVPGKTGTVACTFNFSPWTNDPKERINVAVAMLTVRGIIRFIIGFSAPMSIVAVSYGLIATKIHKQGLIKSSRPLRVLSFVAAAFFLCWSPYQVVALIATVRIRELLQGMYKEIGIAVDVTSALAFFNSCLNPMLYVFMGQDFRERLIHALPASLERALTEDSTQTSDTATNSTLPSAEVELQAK

| Compound | EC50 (human FPR2) [nM] | EC50 (human FPR1) [µM] |
| --- | --- | --- |
| CS(=O)(=O)Nc1ccccc1-c1ccc(N2CC[C@@H](NC(=O)Nc3ccc(Cl)cn3)C2=O)c(F)c1F [Example 17] | 16 | 4.1 |
| O=C(Nc1ccc(Cl)cc1)N[C@@H]1CCN(c2ccc(-c3ccccc3CO)c(F)c2F)C1=O [Example 3] | 1.1 | 0.22 |
| CS(=O)(=O)Nc1ccccc1-c1ccc(N2CC[C@@H](NC(=O)Nc3ccc(Cl)cc3F)C2=O)c(F)c1F [Example 5] | 0.68 | 0.23 |
| CP(C)(=O)c1ccccc1-c1ccc(N2CC[C@@H](NC(=O)Nc3ccc(Cl)cc3F)C2=O)c(F)c1Cl [Example 81] | 0.52 | 0.027 |
| CS(=O)(=O)c1ccccc1-c1ccc(N2C(=O)[C@H](NC(=O)Nc3ccc(Cl)cc3F)C[C@H]2CO)c(F)c1F [Example 42] | 1 | 0.22 |
| CP(C)(=O)c1ccccc1-c1cc(F)c(N2CC[C@@H](NC(=O)Nc3ccc(Cl)cc3F)C2=O)c(F)c1 [Example 53] | 7.8 | 2.7 |
| CCP(=O)(CC)c1ccccc1-c1ccc(N2CC[C@@H](NC(=O)Nc3ncc(Cl)cc3F)C2=O)c(F)c1F [Example 67] | 2.48 | 1.3 |
| CP(C)(=O)c1ccccc1-c1ccc(N2CC[C@@H](NC(=O)Nc3ccc(Cl)cc3F)C2=O)c(F)c1C(F)(F)F [Example 83] | 0.41 | 0.00099 |
| CP(C)(=O)c1ccccc1-c1cc(F)c(N2CC[C@@H](NC(=O)Nc3ccc(C(F)(F)F)cc3F)C2=O)c(F)c1 [Example 76] | 4.1 | 2.1 |
| CS(=N)(=O)c1ccccc1-c1ccc(N2CC[C@@H](NC(=O)Nc3ccc(C(F)(F)F)cc3F)C2=O)c(F)c1F (stereo partly drawn) [Example 66] | 4.9 | 0.58 |
| CC(C)c1cc(-c2ccccc2S(C)(=O)=O)ccc1N1CC[C@@H](NC(=O)Nc2ccc(Cl)cc2F)C1=O [Example 40] | 4.6 | 0.05 |
| CS(=O)(=O)Nc1ccccc1-c1ccc(N2CC[C@@H](NC(=O)Nc3ccc(Cl)cc3F)C2=O)c(F)c1 [Example 32] | 0.91 | 0.25 |
| CS(=O)(=O)Nc1ccccc1-c1ccc(N2CC[C@@H](NC(=O)Nc3ccc(Cl)cc3F)C2=O)c(C2CC2)c1 [Example 26] | 0.55 | 0.047 |
| CS(=O)(=O)Nc1ccccc1-c1ccc(N2CC[C@@H](NC(=O)Nc3ncc(Cl)cc3F)C2=O)c(F)c1F [Example 13] | 6.5 | 2.5 |
| CP(C)(=O)c1ccccc1-c1ccc(N2CC[C@@H](NC(=O)Nc3ccc(Cl)cc3F)C2=O)c(F)c1F [Example 25, (R)-1-(4-chloro-2-fluorophenyl)-3-(1-(2′-(dimethylphosphoryl)-2,3-difluoro-[1,1′-biphenyl]-4-yl)-2-oxopyrrolidin-3-yl)urea] | 0.53 | 0.26 |
| CC(C)c1cc(-c2ccccc2P(C)(C)=O)ccc1N1CC[C@@H](NC(=O)Nc2ncc(Cl)cc2F)C1=O [Example 61] | 23 | 0.37 |
| CC(=O)NC(C)c1cccc(-c2ccc(N3CC[C@@H](NC(=O)Nc4ccc(Cl)cc4F)C3=O)c(F)c2F)c1 (stereo partly drawn) [Example 44] | 43 | 0.45 |
| O=C(Nc1ccc(Cl)cc1F)N[C@@H]1CCN(c2ccc(-c3ccccc3CO)c(F)c2F)C1=O [Example 2] | 4.2 | 0.36 |
| CP(C)(=O)c1ccccc1-c1ccc(N2CC[C@@H](NC(=O)Nc3ncc(C(F)(F)F)cc3F)C2=O)c(F)c1F [Example 55] | 22 | > 10 |
| CP(C)(=O)c1ccccc1-c1ccc(N2CC[C@@H](NC(=O)Nc3cnc(Cl)cn3)C2=O)c(C2CC2)c1 [Example 62] | 31 | 0.72 |
| CP(C)(=O)c1c(F)cccc1-c1ccc(N2CC[C@@H](NC(=O)Nc3ccc(C(F)(F)F)cc3F)C2=O)c(F)c1Cl [Example 86] | 0.85 | 0.021 |
| O=C(Nc1ccc(Cl)cc1F)N[C@@H]1C[C@@H](CO)N(c2ccc(-c3ccccc3F)c(F)c2F)C1=O [Example 82] | 2.5 | 0.78 |
| CP(C)(=O)c1ccccc1-c1ccc(N2CC[C@@H](NC(=O)Nc3ccc(C(F)(F)F)cc3F)C2=O)c(F)c1F [Example 57, (R)-1-(1-(2′-(dimethylphosphoryl)-2,3-difluoro-[1,1′-biphenyl]-4-yl)-2-oxopyrrolidin-3-yl)-3-(2-fluoro-4-(trifluoromethyl)phenyl)urea] | 0.95 | 1 |
| CP(C)(=O)c1c(F)cccc1-c1ccc(N2CC[C@@H](NC(=O)Nc3ccc(Cl)cc3F)C2=O)c(F)c1F [Example 70] | 0.077 | 0.02 |

The remaining lines, values ahead:

| EC50 (human FPR2) [nM] | EC50 (human FPR1) [µM] | Compound |
| --- | --- | --- |
| 0.78 | 0.16 | CC1C[C@@H](NC(=O)Nc2ccc(C(F)(F)F)cc2F)C(=O)N1c1ccc(-c2cccnc2P(C)(C)=O)c(F)c1F (stereo partly drawn) [Example 120] |
| 0.99 | 0.18 | CP(C)(=O)c1ccccc1-c1ccc(N2CC(CO)[C@@H](NC(=O)Nc3ccc(Cl)cc3F)C2=O)c(F)c1F (stereo partly drawn) [Example 125] |
| 0.44 | 0.39 | CC1C[C@@H](NC(=O)Nc2ccc(Cl)cc2F)C(=O)N1c1ccc(-c2ccccc2P(C)(C)=O)c(F)c1F (stereo in doubt) [Example 109, 1-(4-Chloro-2-fluorophenyl)-3-(1-(2′-(dimethylphosphoryl)-2,3-difluoro-[1,1′-biphenyl]-4-yl)-5-methyl-2-oxopyrrolidin-3-yl)urea] |
| 32 | 0.2 | CP(C)(=O)c1ccccc1-c1ccc(N2CC[C@@H](NC(=O)Nc3ccc(Cl)cc3F)C2=O)c(F)c1C(F)F [Example 95] |
| 5.7 | 0.2 | CP(C)(=O)c1ccccc1-c1ccc(N2CC[C@@H](NC(=O)Nc3ccc(Cl)cc3F)C2=O)c(C(F)(F)F)c1F [Example 91, (R)-1-(4-Chloro-2-fluorophenyl)-3-(1-(2′-(dimethylphosphoryl)-2-fluoro-3-(trifluoromethyl)-[1,1′-biphenyl]-4-yl)-2-oxopyrrolidin-3-yl)urea] |
| 0.48 | 0.028 | CP(C)(=O)c1ccccc1-c1ccc(N2CC3(CC3)[C@@H](NC(=O)Nc3ccc(Cl)cc3F)C2=O)c(F)c1F [Example 132] |
| 12 | > 10 | CP(C)(=O)c1ccccc1-c1ccc(N2CC(CO)[C@@H](NC(=O)Nc3ccc(Cl)cc3F)C2=O)c(F)c1F (stereo partly drawn) [Example 126] |
| 14 | 0.19 | O=C(Nc1ccc(Cl)cc1F)N[C@@H]1CCN(c2ccc(-c3ccccc3N3CCOC3=O)c(F)c2F)C1=O [Example 119] |
| 2.5 | 1500 | CP(C)(=O)c1ccccc1-c1ccc(N2CC[C@@H](NC(=O)Nc3cccc(Cl)c3)C2=O)c(F)c1F [Example 134] |
| 0.79 | 0.24 | CP(C)(=O)c1ccccc1-c1ccc(N2CC[C@@H](NC(=O)Nc3ccc(Cl)cc3F)C2=O)c(Cl)c1F [Example 99] |
| 13 | 0.084 | CP(C)(=O)c1ccccc1-c1ccc(N2CC[C@@H](NC(=O)Nc3ccc(Cl)cc3F)C2=O)c(C2CC2)c1F [Example 117] |
| 2.9 | 0.075 | Cc1c(N2CC[C@@H](NC(=O)Nc3ccc(Cl)cc3F)C2=O)ccc(-c2ccccc2P(C)(C)=O)c1F [Example 96] |
| 18 | 0.92 | CP(C)(=O)c1ccccc1-c1ccc(N2CC(CO)[C@@H](NC(=O)Nc3ccc(Cl)cc3F)C2=O)c(F)c1F (stereo partly drawn) [Example 127] |
| 1.1 | 0.64 | CC1(C)CN(c2ccc(-c3cccnc3P(C)(C)=O)c(F)c2F)C(=O)[C@@H]1NC(=O)Nc1ccc(C(F)(F)F)cc1F [Example 110] |
| 150 | > 5 | CP(C)(=O)c1ccccc1-c1ccc(N2CC[C@@H](NC(=O)Nc3csc(Cl)c3)C2=O)c(F)c1F [Example 133] |
